Measured values: patent US12486303B2, “Use of peptide for inhibiting functions and expressions of multiple disease biomarkers” (NIBEC CO., LTD., priority 2018, dated 2025)

Key:
NF-κB p100/p52 = experiment: Phospho explorer antibody microarray of LPS-treated RAW 264.7 cells: NF-κB p100/p52; type: cell-based; conditions: 200 μM peptide 1 hour then LPS 1 μg/mL 30 minutes, compared to cells treated with only LPS
Method: (§1) RAW 264.7 cells were starved in 0.5% FBS for 2 hours and treated with 200 μM of the peptide of SEQ ID NO: 1 for 1 hour, and then inflammation was induced at 37° C. for 30 minutes with LPS (1 μg/mL). Cell lysates of untreated cells (NT), cells treated with LPS, and cells treated with SEQ ID NO: 1 and LPS were applied to a Phospho explorer antibody microarray from Full Moon Biosystems. The phospho microarray is capable of recognizing 1318 antibodies related to 30 signaling systems. A standard-size coated glass microscope slide was coated with each antibody. =It was scanned with a GenePix 4100A scanner (Axon Instrument, Foster City, CA, USA). Data were analyzed with Genowiz 4.0™ (Ocimum Biosolutions, Hyderabad, India). The phosphorylation ratio was calculated as follows.
(§2) Formula for calculating phosphorylation ratio in each antibody: Phosphorylation ratio=(phosphorylation value of experimental group/non-phosphorylation value of experimental group)/(phosphorylation value of control group/non-phosphorylation value of control group)

HDAC5 = experiment: Phospho explorer antibody microarray of LPS-treated RAW 264.7 cells: HDAC5; type: cell-based; conditions: 200 μM peptide 1 hour then LPS 1 μg/mL 30 minutes, compared to cells treated with only LPS
Method: as §1, §2

[1] = test system: collagen-induced arthritis (CIA) rats; experiment: Collagen-induced arthritis animal model; type: in vivo, Wistar rats; conditions: for Hind paw swelling inhibition (%): 38th day
From the text: In order to determine whether or not the peptide according to the present invention is effective in treating rheumatoid arthritis in vivo, the effect of treating arthritis thereof was detected in a collagen-induced arthritis animal model. For this purpose, female Wistar rats (105-135 g, n=67) were purchased from Harlan Co. Ltd. (Indianapolis, IN, USA). All rats were bred in a pathogen-free environment and sterilized standard rat feed (Harlan Co. Ltd, USA) and water were freely fed to the rats. Animal experiments were conducted with the approval of the Institutional Animal Care and Use Committee (IACUC) of Seoul National University. Collagen-induced arthritis was induced in a known manner (Nishikawa et al., Arthritis and rheumatism. 2003; 48:2670-81).
Specifically, 500 μg of bovine collagen type II was injected along with a mixture of 0.5 mL of 0.1 M acetic acid and 0.5 mL of Freund's incomplete adjuvant into rat muscle. On the 7th day, 0.5 mL of 0.1 M acetic acid and 0.5 mL of Freund's incomplete adjuvant were further inoculated along with 250 μg of bovine collagen type II to produce collagen-induced arthritis (CIA) rats. The rats were classified into a CIA-induced group (n=10), a CIA-induced group injected with a low concentration of the peptide of SEQ ID NO: 1 (LD AIP, 15 mg/kg, n=10), a CIA-induced group injected with a high concentration of the peptide of SEQ ID NO: 1 (HD AIP, 30 mg/kg, n=10), a CIA-induced group injected with etanercept (Enbrel) (10 mg/kg, n=10), and a normal group (n=6). From 28 days after the first collagen injection, the peptide of SEQ ID NO: 1 was injected subcutaneously into the back of the neck twice a week over 4 weeks. Etanercept was injected intraperitoneally three times a week over 4 weeks. Swelling of both hind paws was measured twice using a plethysmometer (LE7500 N, IWOO Scientific Corporation, KOREA) on day 22, 29, 31, 35, 38, 42, 45, 49, 52, and 56. The plethysmometer was used after calibration to a weight of 3 mL. The measured area was marked by drawing a line, and measurement was conducted adjacent to the ankle. Hind paw swelling increase (%) and hind paw swelling inhibition (%) were calculated using the following equations.
In order to observe the degree of bone damage in the hind paw, microcomputed tomography (micro-CT) was performed using a SkyScan 1172 (SkyScan, Aartselaar, Belgium). The total volume (TV; mm^3), bone volume (BV; mm^3) and bone volume fraction (BV/TV; %) were analyzed using CTAn software. On the 57th day, rats were sacrificed and subjected to histological analysis. Both hind paws and joints were collected, fixed in 10% buffered formalin, and demineralized in 30% citrate-buffered formic acid at 4° ° C. for 3 days. Paraffin blocks were produced, sliced into sections with a thickness of 4 μm and stained with hematoxylin and eosin (H&E), and then the pathological score was evaluated with an optical microscope. The joint inflammation index was measured based on the following criteria (Shiozawa et al., J Clin Invest. 1997; 99 (6):1210-1216). 0, normal synovium; 1, synovial membrane hypertrophy and cell infiltrates; 2, pannus and cartilage erosion; 3, major erosion of cartilage and subchondral bone; and 4, loss of joint integrity and ankylosis.
The rats were sacrificed and systemic blood was collected, and the concentrations of TNF-α and IL-6 in the blood were measured with an ELISA kit (R&D, Minneapolis, MN, USA).

[2] = test system: high-fat diet C57BL/6 mice; experiment: Non-alcoholic hepatitis animal model induced by high-fat diet; type: in vivo; conditions: 7 weeks, peptide 15 or 30 mg/kg
From the text: In order to determine whether or not the peptide according to the present invention has the effect of treating hepatitis and inhibiting obesity in vivo, a non-alcoholic hepatitis animal model induced by a high-fat diet was used. Male C57BL/6 mice (7 weeks old) were acclimated for 1 week and a total of 20 animals were divided into four experimental groups (n=5 per group), namely, a normal diet group (control), a high-fat diet group (DIO: HFD-induced obesity), a group injected with a low dose of the peptide of SEQ ID NO: 1 (LD SEQ ID NO: 1, 15 mg/kg) and a group injected with a high dose of the peptide of SEQ ID NO: 1 (HD SEQ ID NO: 1, 30 mg/kg), and were reared with the high-fat diet or the normal diet for 7 weeks. The high-fat diet was a 60% high-fat diet (Dyets, Inc). During 7 weeks of rearing, body weight and feed intake were measured twice a week. On the 50th day after 7 weeks of rearing, the animals were sacrificed, and liver and adipose tissues were collected and sized.

HDAC5 protein = biological target: T1, HDAC5 protein (Homo sapiens, UniProt Q9UQL6); experiment: Biacore T200 binding affinity to immobilised HDAC5 protein; conditions: CM5 chip, 1:1 binding model
T1 construct: purchased Abcam
Method: For this purpose, HDAC5 protein (Abcam, MA, USA) was dissolved in sodium acetate buffer (pH 4.5), and was bound to a dextran-covered sensor chip surface (CM5 chip) using N-hydroxysuccinimide (NHS) and N-ethyl-N0-(3-dimethylaminopropyl)-carbodiimide hydrochloride (EDAC) as crosslinkers. The unreacted active group of dextran was blocked by the addition of ethanolamine (1M) thereto. The number of HDAC5 binding to the chip was measured as 4440RU (1000 RU=1 ng/mm^2). […] Rate constants for association (ka) and dissociation (kd), and a dissociation constant (KD) were calculated using BIAevaluation software and a 1:1 binding model.

IκBα = experiment: Phospho explorer antibody microarray of LPS-treated RAW 264.7 cells: IκBα; type: cell-based; conditions: 200 μM peptide 1 hour then LPS 1 μg/mL 30 minutes, compared to cells treated with only LPS
Method: as §1, §2

NF-κB p105/p50 = experiment: Phospho explorer antibody microarray of LPS-treated RAW 264.7 cells: NF-κB p105/p50; type: cell-based; conditions: 200 μM peptide 1 hour then LPS 1 μg/mL 30 minutes, compared to cells treated with only LPS
Method: as §1, §2

T1 sequence (Q9UQL6 whole entry, species assumed): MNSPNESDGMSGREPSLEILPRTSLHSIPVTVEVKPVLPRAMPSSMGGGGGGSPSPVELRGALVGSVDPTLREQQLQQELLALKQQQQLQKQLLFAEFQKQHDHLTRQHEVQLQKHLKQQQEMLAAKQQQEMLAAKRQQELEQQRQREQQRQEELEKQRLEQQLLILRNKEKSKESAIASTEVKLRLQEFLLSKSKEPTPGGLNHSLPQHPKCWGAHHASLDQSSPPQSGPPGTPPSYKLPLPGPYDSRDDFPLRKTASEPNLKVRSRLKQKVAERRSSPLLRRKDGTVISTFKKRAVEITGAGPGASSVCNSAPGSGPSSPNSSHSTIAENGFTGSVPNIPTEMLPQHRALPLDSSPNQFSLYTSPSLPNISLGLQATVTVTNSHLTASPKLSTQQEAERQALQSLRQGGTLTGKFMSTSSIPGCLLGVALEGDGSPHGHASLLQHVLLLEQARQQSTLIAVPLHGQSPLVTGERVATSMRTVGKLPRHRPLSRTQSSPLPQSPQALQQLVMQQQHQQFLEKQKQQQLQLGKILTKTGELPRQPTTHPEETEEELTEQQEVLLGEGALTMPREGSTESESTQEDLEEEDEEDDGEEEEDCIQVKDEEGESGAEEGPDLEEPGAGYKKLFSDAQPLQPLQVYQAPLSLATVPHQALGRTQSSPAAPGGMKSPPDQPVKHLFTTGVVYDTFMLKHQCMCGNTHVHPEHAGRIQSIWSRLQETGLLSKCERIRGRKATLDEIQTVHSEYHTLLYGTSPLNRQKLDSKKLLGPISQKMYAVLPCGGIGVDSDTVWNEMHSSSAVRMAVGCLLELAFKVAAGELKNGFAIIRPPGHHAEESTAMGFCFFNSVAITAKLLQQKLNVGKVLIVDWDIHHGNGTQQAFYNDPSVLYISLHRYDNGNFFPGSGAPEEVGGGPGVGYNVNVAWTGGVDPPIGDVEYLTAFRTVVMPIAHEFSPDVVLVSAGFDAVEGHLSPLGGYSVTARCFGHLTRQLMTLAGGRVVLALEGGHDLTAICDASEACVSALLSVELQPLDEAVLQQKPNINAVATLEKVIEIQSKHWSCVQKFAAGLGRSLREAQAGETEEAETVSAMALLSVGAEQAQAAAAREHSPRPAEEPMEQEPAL

Structure (SMILES): C[C@@H](O)[C@H](NC(=O)[C@H](CO)NC(=O)[C@H](CS)NC(=O)[C@H](CCCCN)NC(=O)CN)C(=O)N[C@@H](CCCNC(=N)N)C(=O)NCC(=O)N[C@@H](CCCNC(=N)N)C(=O)N[C@@H](CCCCN)C(=O)N[C@@H](CS)C(=O)N[C@@H](CS)C(=O)N[C@@H](CCCNC(=N)N)C(=O)N[C@@H](CCCNC(=N)N)C(=O)N[C@@H](CCCCN)C(=O)N[C@@H](CCCCN)C(=O)O [SEQ ID NO: 1]
- Phosphorylation ratio of NF-κB p100/p52 (NF-κB p100/p52): 0.451
- Phosphorylation ratio of HDAC5 (HDAC5): 0.278
- Concentration of IL-6 in blood ([1]; ELISA, high concentration of peptide or etanercept, CIA-induced group 109 pg/ml): 35.2 pg/mL
- Concentration of TNF-α in blood ([1]; ELISA, high concentration of peptide or etanercept, CIA-induced group 128 pg/ml): 40.3 pg/mL
- Bone damage in hind paw (micro-CT) ([1]; FIG. 3A): bone tissue was preserved
- Microscopic observation of joint tissues (inflammation, H&E) ([1]; FIG. 4A): decrease in inflammation in a concentration-dependent manner
- Hind paw swelling inhibition (%) ([1]; high concentration (30 mg/kg)): 35%
- Bone surface area adjusted to BV (BS/BV) ([1]; high concentration, micro-CT): low
- Bone volume (BV) ([1]; high concentration, micro-CT): high
- Bone volume/tissue volume (BV/TV) ([1]; high concentration, micro-CT): high
- Trabecular thickness (Tb.Th) ([1]; high concentration, micro-CT): high
- Hind paw swelling inhibition (%) ([1]; low concentration (15 mg/kg)): 32%
- Hind paw swelling (%) ([1]; peptide 15 or 30 mg/kg subcutaneously twice a week, etanercept 10 mg/kg intraperitoneally three times a week, 4 weeks): decrease in hind paw swelling (%) in a concentration-dependent manner
- Hind paw swelling (%) ([1]; peptide at high concentration (30 mg/kg)): decrease in hind paw swelling (%) between 38 and 49 days (P<0.05)
- Inflammation index ([1]; score 0-4, CIA-induced group 3.3±0.67): 1.5±1.17
- Size of subcutaneous fat [2]: decreased
- Size of the liver [2]: decreased
- kd (HDAC5 protein): 0.07264 s⁻¹
- kon (HDAC5 protein; read-out: ka): 108000 M⁻¹ s⁻¹
- Phosphorylation ratio of IκBα (IκBα): 0.509
- Phosphorylation ratio of NF-κB p105/p50 (NF-κB p105/p50): 0.485
